Reference: patent US8476251B2, “Skin care compositions comprising substituted diamines” (Conopco, Inc., priority 2010, dated 2013)

Tested on: Melanoderm tissue equivalent model MEL-300 containing melanocytes obtained from dark skin individuals
Experiment: Melanoderm tissue equivalent model MEL-300, total melanin content (inhibition of melanogenesis)
Type: cell-based
Details: 14 days; for inhibition at 10 µM: Melanocyte, 336 h, 10 μM in maintenance medium, total melanin content vs DMSO vehicle control, read-out: Melanoderm (% Reduction at 10 μM); for melanogenesis inhibition (in words): Melanoderm MEL-300, 10 μM
Protocol: Melanoderm tissue equivalent model MEL-300 (MatTek: Ashland, Mass.) containing melanocytes obtained from dark skin individuals were cultured as per supplier instructions. Components were added to the maintenance medium phase (no topical treatments) at a final concentration of 10 μM for 14 days at which time the experiment was terminated and the tissues assessed for melanin content. Medium and treatments were changed three times per week. DMSO was utilized as the vehicle control and all treatments were performed at least in duplicate.
For quantification of total melanin, each Melanoderm was placed into an individual Eppendorf tube (2 mL) into which 250 μL of Solvable™ tissue solubilizer (Packard Bioscience Co., Cat# 6NE9100) was added. Each tube was vortexed and incubated at 60° C. for 18 hours. Each sample was then centrifuged (5-minutes at 13,000 RPMs) to remove any particulates. 100 or 200 μL of supernatant were transferred to a 96 well microtiter plate and the absorbance read at 490 nm. Total melanin content was calculated from a standard curve using synthetic melanin (Sigma Cat# M8631). Data was analyzed for significance using the t-test in Microsoft Excel to generate p-values (p-values less than 0.01 represent 99% confidence, p values of 0.05 represent 95% confidence both of which are statistically significant).

**Q.** Which inhibition at 10 µM does the source give for `CN(C)CCCN(Cc1ccccc1)Cc1ccccc1` [Compound 5f, N,N-dibenzyl-N′,N′-dimethylpropane-1,3-diamine] here?
**A.** 50%

**Q.** `COc1ccc(CN(CCN(C)C)Cc2ccc(OC)cc2)cc1` [Compound 5b, N,N-bis(4-methoxybenzyl)-N′,N′-dimethylethane-1,2-diamine] was tested. Which inhibition at 10 µM did it give?
**A.** 48.7%

**Q.** Which inhibition at 10 µM does the source give for `CN(C)CCN(Cc1ccccc1)Cc1ccc(F)cc1` [Compound 3i, N-benzyl-N-(4-fluorobenzyl)-N′,N′-dimethylethane-1,2-diamine] here?
**A.** 47.8%

**Q.** With `CCN(CC)CCN(Cc1ccccc1)Cc1ccccc1` [Compound 5d, N,N-dibenzyl-N′,N′-diethylethane-1,2-diamine] as the compound, how does the inhibition at 10 µM read?
**A.** 45.6%

**Q.** How did the inhibition at 10 µM turn out when `CN(C)CCN(Cc1ccccc1)Cc1ccc2ccccc2c1` [Compound 3d, N-benzyl-N′,N′-dimethyl-N-(naphthalen-2-ylmethyl)ethane-1,2-diamine] was run?
**A.** 56%

**Q.** With `Cc1ccccc1CN(CCN(C)C)Cc1ccccc1` [Compound 3e, N-benzyl-N′,N′-dimethyl-N-(2-methylbenzyl)ethane-1,2-diamine] as the compound, how does the inhibition at 10 µM read?
**A.** 46.6%

**Q.** How did the inhibition at 10 µM turn out when `COc1ccc(CN(CCN(C)C)Cc2ccccc2)cc1` [Compound 3h, N-benzyl-N-(4-methoxybenzyl)-N′,N′-dimethylethane-1,2-diamine] was run?
**A.** 48.8%

**Q.** How did the inhibition at 10 µM turn out when `CN(C)CCN(CCc1ccccc1)Cc1ccccc1` [Compound 3c, N-benzyl-N′,N′-dimethyl-N-(2-phenylethyl)ethane-1,2-diamine] was run?
**A.** 51.8%

**Q.** `Cc1cccc(CN(CCN(C)C)Cc2ccccc2)c1` [Compound 3f, N-benzyl-N′,N′-dimethyl-N-(3-methylbenzyl)ethane-1,2-diamine] was tested. Which inhibition at 10 µM did it give?
**A.** 51.6%

**Q.** Which inhibition at 10 µM does the source give for `CN(C)CCN(CC1CCCCC1)CC1CCCCC1` [Compound 5a, N,N-bis(cyclohexylmethyl)-N′,N′-dimethylethane-1,2-diamine] here?
**A.** 42.5%

**Q.** With `CN(C)CCN(Cc1ccccc1)Cc1ccccc1` [Compound 3b, N,N-dibenzyl-N′,N′-dimethylethane-1,2-diamine] as the compound, how does the inhibition at 10 µM read?
**A.** 39.5%

**Q.** And the “melanogenesis inhibition (in words)” value?
**A.** effective at melanogenesis inhibition

**Q.** Which inhibition at 10 µM does the source give for `CCN(CCN(C)C)Cc1ccccc1` [Compound 3j, N-benzyl-N-ethyl-N′,N′-dimethylethane-1,2-diamine] here?
**A.** -0.1%

**Q.** What about the “melanogenesis inhibition (in words)” value of the same compound?
**A.** is not

**Q.** For `Cc1ccc(CN(CCN(C)C)Cc2ccccc2)cc1` [Compound 3g, N-benzyl-N′,N′-dimethyl-N-(4-methylbenzyl)ethane-1,2-diamine], which inhibition at 10 µM is on record?
**A.** 53.2%

**Q.** `CN(C)CCN(Cc1ccccc1)C(=O)c1ccccc1` [Compound 7, N-benzyl-N-[2-(dimethylamino)ethyl]benzamide] was tested. Which inhibition at 10 µM did it give?
**A.** 4.4%

**Q.** And the “melanogenesis inhibition (in words)” value?
**A.** is not

**Q.** For `CC(c1ccccc1)N(CCN(C)C)Cc1ccccc1` (stereo not shown) [Compound 11, N-benzyl-N′,N′-dimethyl-N-(1-phenylethyl)ethane-1,2-diamine], which inhibition at 10 µM is on record?
**A.** 47.8%

**Q.** How did the inhibition at 10 µM turn out when `CN(C)CCN(Cc1ccc(F)cc1)Cc1ccc(F)cc1` [Compound 5c, N,N-bis(4-fluorobenzyl)-N′,N′-dimethylethane-1,2-diamine] was run?
**A.** 49.3%

**Q.** Which inhibition at 10 µM does the source give for `c1ccc(CN(CCN2CCCC2)Cc2ccccc2)cc1` [Compound 5e, N,N-dibenzyl-2-(pyrrolidin-1-yl)ethanamine] here?
**A.** 40.6%

**Q.** `CN(C)CCN(Cc1ccccc1)CC1CCCCC1` [Compound 3a, N-benzyl-N-(cyclohexylmethyl)-N′,N′-dimethylethane-1,2-diamine] was tested. Which inhibition at 10 µM did it give?
**A.** 51.3%

**Q.** And the “melanogenesis inhibition (in words)” value?
**A.** effective at melanogenesis inhibition
